Our source for the IC50 values is patent publication US20240368139A1, “NOVEL MODULATORS OF EHMT1 AND EHMT2 AND THERAPEUTIC USE THEREOF” (Tango Therapeutics, Inc., priority 2021, published 2024).

Structures are written as SMILES. A value given as a limit tells only on which side of the number the result lay.

In assay [1] the test system is H3K9me2 in HCT116 cells. Put plainly: HCT116 H3K9me2 in-cell western assay. The assay is classed as cell-based. To be noted: Homo sapiens, HCT-116, 72 h, HCT116 cells, 72 hours incubation; read-out: H3K9me2 ICW IC50. In short, it runs like this: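 HCT116 cells (2,000/well) were treated for 72 h at 37° C, 5% CO2, with ten two-fold dilutions from 10 μM in duplicate. After PFA fixation, cells were stained overnight at 4° C with anti-H3K9me2, then with an 800 CW secondary plus DRAQ5.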

The target in assay [2] is T1, human EHMT1 982-1266 (Homo sapiens, UniProt Q9H9B1).
T1 sequence (Q9H9B1 982-1266): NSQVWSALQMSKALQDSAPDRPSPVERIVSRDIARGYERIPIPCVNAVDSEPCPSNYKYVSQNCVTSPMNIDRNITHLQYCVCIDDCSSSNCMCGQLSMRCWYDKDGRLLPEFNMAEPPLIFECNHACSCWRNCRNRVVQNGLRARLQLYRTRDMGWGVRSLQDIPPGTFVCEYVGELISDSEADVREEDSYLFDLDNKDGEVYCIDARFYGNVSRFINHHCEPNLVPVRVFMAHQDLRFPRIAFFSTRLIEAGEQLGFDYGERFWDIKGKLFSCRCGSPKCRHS
Put plainly: EHMT1 enzyme assay on histone peptide substrate (3H-SAM SPA). To be noted: EHMT1 IC50, recombinant human EHMT1 982-1266, histone peptide substrate.

Assay [3] addresses T2, human EHMT2 913-1193 (Homo sapiens, UniProt Q96KQ7).
T2 sequence (Q96KQ7 913-1193): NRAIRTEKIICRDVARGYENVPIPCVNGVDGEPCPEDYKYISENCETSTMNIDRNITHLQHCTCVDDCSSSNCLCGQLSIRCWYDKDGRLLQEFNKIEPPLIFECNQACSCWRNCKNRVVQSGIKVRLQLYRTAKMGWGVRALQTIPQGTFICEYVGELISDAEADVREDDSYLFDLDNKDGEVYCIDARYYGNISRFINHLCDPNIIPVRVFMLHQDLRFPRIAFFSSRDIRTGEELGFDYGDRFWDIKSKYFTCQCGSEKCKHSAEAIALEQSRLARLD
In words: EHMT2 enzyme assay on histone peptide substrate (3H-SAM SPA). The conditions noted are these: EHMT2 IC50, recombinant human EHMT2 913-1193, histone peptide substrate.

As to `CNc1cc(Nc2cc3c(c(C4=CCN(C)CCC4)c2F)OCCC3)nc(C)c1F` [Compound 236], the IC50 was 100 to 500 nM in assay [1], under 100 nM in assay [2] and 100 to 500 nM in assay [3].

Take `[2H]Cc1nc(Nc2cc3c(c(C4=CCNCCC4)c2)OCC3)nc(NCC([2H])([2H])[2H])c1F` [Compound 237]: the figures for the IC50 in assay [1], in assay [2] and in assay [3] were 100 to 500 nM, 100 to 500 nM and 500 to 2000 nM, respectively.

Turning to `[2H]C([2H])([2H])Nc1cc(C)nc(Nc2cc3c(c(C4=CCN(C)CCC4)c2F)OCC3)n1` [Compound 238], the IC50 in assay [1], in assay [2] and in assay [3] was under 100 nM in each case.

Consider `CCNc1nc(Nc2cc3c(c(C4=CCNCCC4)c2F)OCC3)nc(C)c1F` [Compound 239], for which the IC50 in assay [1] was 100 to 500 nM; in assay [2] it was under 100 nM; in assay [3], 100 to 500 nM.

For `[2H]Cc1nc(Nc2cc3c(c(C4=CCNCCC4)c2)OCO3)nc(NC([2H])([2H])[2H])c1F` [Compound 240], the IC50 in assay [1], in assay [2] and in assay [3] was 100 to 500 nM in each case.

As to `CCNc1nc(Nc2cc3c(c(C4=CCN(C)CCC4)c2F)OCC3)nc(C)c1F` [Compound 241], the IC50 in assay [1] lay in the range of 100 to 500 nM; in assay [2], 100 to 500 nM; in assay [3] it was 500 to 2000 nM.

As for `CNc1nc(Nc2cc3c(c(C4=CCNCCC4)c2F)OCC3)nc(C)c1F` [Compound 242], the IC50 in assay [1], in assay [2] and in assay [3] was under 100 nM in each case.

`CNc1cc(Nc2cc3c(c(C4=CCNCCC4)c2F)OCCC3)nc(C)c1F` [Compound 243]: the IC50 in assay [1], in assay [2] and in assay [3] was under 100 nM throughout.

As to `[2H]C([2H])([2H])CNc1cc(C)nc(Nc2cc3c(c(C4=CCN(C)CCC4)c2)OCO3)n1` [Compound 244], the figures for the IC50 in assay [1], in assay [2] and in assay [3] were 100 to 500 nM, under 100 nM and 100 to 500 nM, respectively.

For `CNc1nc(Nc2cc3c(c(C4=CCN(C)CCC4)c2F)OCC3)nc(C)c1F` [Compound 245], the IC50 in assay [1] fell in the range of 100 to 500 nM; in assay [2] it was 100 to 500 nM; in assay [3], 500 to 2000 nM.

Regarding `[2H]C([2H])([2H])CNc1cc(C)nc(Nc2cc3c(c(C4=CCNCCC4)c2)OCO3)n1` [Compound 246], the IC50 in assay [1], in assay [2] and in assay [3] was under 100 nM in each case.

`CNc1cc(CC(F)(F)F)nc(Nc2cc3c(c(C4=CCNCCC4)c2)OCC3)c1` [Compound 247]: the IC50 in assay [1], in assay [2] and in assay [3] was 100 to 500 nM throughout.

`[2H]Cc1cc(NC)nc(Nc2cc3c(c(C4=CCNCCC4)c2)OCCC3)n1` [Compound 248]: the IC50 in assay [1], in assay [2] and in assay [3] was under 100 nM throughout.

Take `[2H]Cc1cc(NC([2H])([2H])[2H])nc(Nc2cc3c(c(C4=CCNCCC4)c2)OCCC3)n1` [Compound 250]: the IC50 in assay [1], in assay [2] and in assay [3] was under 100 nM in each case.

Take `[2H]Cc1cc(NC([2H])([2H])[2H])nc(Nc2cc3c(c(C4=CCN(C)CCC4)c2)OCCC3)n1` [Compound 251]: the IC50 in assay [1], in assay [2] and in assay [3] was under 100 nM throughout.

With `[2H]Cc1cc(NC([2H])([2H])[2H])nc(Nc2cc3c(c(C4=CCNCCC4)c2)OCO3)n1` [Compound 252], the IC50 in assay [1], in assay [2] and in assay [3] was under 100 nM throughout.

`[2H]Cc1cc(NC([2H])([2H])[2H])nc(Nc2cc3c(c(C4=CCN(C)CCC4)c2)OCO3)n1` [Compound 254]: the IC50 in assay [1], in assay [2] and in assay [3] was under 100 nM each time.

For `CNc1cc(Nc2cc3c(c(C4=CCN(C)CCC4)c2F)OCC3)nc(C)c1F` [Compound 255], the IC50 in assay [1], in assay [2] and in assay [3] was under 100 nM in each case.

Take `[2H]C([2H])([2H])Nc1nc(Nc2cc3c(c(C4=CCNCCC4)c2F)OCC3)nc(C)c1F` [Compound 256]: the IC50 in assay [1], in assay [2] and in assay [3] was under 100 nM in each case.

In the case of `CNc1cc(Nc2cc3c(c(C4=CCNCCC4)c2F)OCC3)nc(C)c1F` [Compound 257], the IC50 in assay [1], in assay [2] and in assay [3] was under 100 nM throughout.

On to `[2H]C([2H])([2H])CNc1nc(Nc2cc3c(c(C4=CCNCCC4)c2F)OCC3)nc(C)c1F` [Compound 258], for which the IC50 in assay [1], in assay [2] and in assay [3] was 100 to 500 nM throughout.

Turning to `[2H]C([2H])([2H])CNc1cc(C)nc(Nc2cc3c(c(C4=CCN(C)CCC4)c2)OCCC3)n1` [Compound 259], the IC50 was 100 to 500 nM in assay [1], under 100 nM in assay [2] and 100 to 500 nM in assay [3].

Consider `[2H]Cc1cc(NCC([2H])([2H])[2H])nc(Nc2cc3c(c(C4=CCN(C)CCC4)c2F)OCC3)n1` [Compound 260], for which the IC50 in assay [1], in assay [2] and in assay [3] was under 100 nM throughout.

Take `[2H]C([2H])([2H])CNc1nc(Nc2cc3c(c(C4=CCN(C)CCC4)c2F)OCC3)nc(C)c1F` [Compound 261]: the IC50 in assay [1] lay within 100 to 500 nM; in assay [2] it was 100 to 500 nM; in assay [3], 500 to 2000 nM.

With `[2H]Cc1cc(NCC([2H])([2H])[2H])nc(Nc2cc3c(c(C4=CCNCCC4)c2F)OCC3)n1` [Compound 262], the IC50 in assay [1], in assay [2] and in assay [3] was under 100 nM throughout.

As to `[2H]C([2H])([2H])CNc1cc(C)nc(Nc2cc3c(c(C4=CCNCCC4)c2)OCCC3)n1` [Compound 263], the IC50 was 100 to 500 nM in assay [1], under 100 nM in assay [2] and under 100 nM in assay [3].

With `[2H]C([2H])([2H])Nc1cc(C)nc(Nc2cc3c(c(C4=CCNCCC4)c2)OCCC3)n1` [Compound 264], the IC50 in assay [1], in assay [2] and in assay [3] was under 100 nM in each case.

As for `[2H]Cc1cc(NC)nc(Nc2cc3c(c(C4=CCN(C)CCC4)c2)OCO3)n1` [Compound 265], the concentration for half-maximal inhibition (IC50) in assay [1], in assay [2] and in assay [3] was under 100 nM each time.

`[2H]Cc1cc(NC)nc(Nc2cc3c(c(C4=CCN(C)CCC4)c2)OCCO3)n1` [Compound 266]: the 50% inhibitory concentration (IC50) in assay [1] is under 100 nM; in assay [2], under 100 nM; in assay [3] it was 100 to 500 nM.

`CNc1nc(Nc2cc3c(c(C4=CCN(C)CCC4)c2)OCC3)nc(C)c1F` [Compound 267]: the values for the IC50 in assay [1], in assay [2] and in assay [3] were 100 to 500 nM, 100 to 500 nM and 500 to 2000 nM, respectively.

As to `[2H]C([2H])([2H])Nc1cc(C)nc(Nc2cc3c(c(C4=CCN(C)CCC4)c2)OCCC3)n1` [Compound 268], the IC50 in assay [1] was 100 to 500 nM; in assay [2], under 100 nM; in assay [3], 100 to 500 nM.

With `[2H]Cc1cc(NC)nc(Nc2cc3c(c(C4=CCNCCC4)c2)OCO3)n1` [Compound 269], the IC50 in assay [1], in assay [2] and in assay [3] was under 100 nM in each case.

Regarding `[2H]Cc1cc(NC)nc(Nc2cc3c(c(C4=CCNCCC4)c2)OCCO3)n1` [Compound 270], the IC50 in assay [1], in assay [2] and in assay [3] was under 100 nM in each case.

For the compound `[2H]C([2H])([2H])Nc1nc(Nc2cc3c(c(C4=CCN(C)CCC4)c2)OCC3)nc(C)c1F` [Compound 271], the values for the IC50 in assay [1], in assay [2] and in assay [3] were 100 to 500 nM, 100 to 500 nM and 500 to 2000 nM, respectively.

On to `[2H]C([2H])([2H])CNc1cc(C)nc(Nc2cc3c(c(C4=CCN(C)CCC4)c2)OCCO3)n1` [Compound 272], for which the results for the IC50 in assay [1], in assay [2] and in assay [3] were 100 to 500 nM, 100 to 500 nM and 500 to 2000 nM, respectively.

On to `[2H]C([2H])([2H])Nc1cc(C)nc(Nc2cc3c(c(C4=CCN(C)CCC4)c2)OCO3)n1` [Compound 273], for which the figures for the concentration for half-maximal inhibition (IC50) in assay [1], in assay [2] and in assay [3] were under 100 nM, under 100 nM and 100 to 500 nM, respectively.

For `[2H]C([2H])([2H])N1CC=C(c2cc(Nc3nc(C)cc(NC)n3)cc3c2OCC3)CCC1` [Compound 274], the IC50 in assay [1], in assay [2] and in assay [3] was under 100 nM each time.

For `[2H]C([2H])([2H])Nc1nc(Nc2cc3c(c(C4=CCNCCC4)c2)OCO3)nc(C)c1F` [Compound 275], the IC50 in assay [1] lay within 100 to 500 nM; in assay [2] it was 100 to 500 nM; in assay [3] it was 500 to 2000 nM.

Take `[2H]C([2H])([2H])Nc1nc(Nc2cc3c(c(C4=CCNCCC4)c2)OCC3)nc(C)c1F` [Compound 276]: the IC50 in assay [1], in assay [2] and in assay [3] was 100 to 500 nM throughout.

Broadly, the IC50 is the midpoint of a concentration-inhibition curve.
